One block for each compound: values may come before it.
Tests used:
[1] = target: ligand binding domain of human FXR (Homo sapiens (Human), UniProt Q96RI1); assay: FXR ligand binding assay (LanthaScreen TR-FRET, SRC2-2 peptide recruitment); settings: for Emax: extent of activation relative to GW4064, read-out: % Efficacy
[2] = target: human Farnesoid X receptor ligand-binding domain/Gal4 DNA binding domain chimera (Homo sapiens (Human), UniProt Q96RI1); assay: Cell-based assay of FXR activation (FXR-UAS-bla HEK 293T beta-lactamase reporter); settings: cellular FXR beta-lactamase reporter assay; for Emax: HEK-293T, extent of activation relative to GW4064, read-out: % Efficacy; for EC50: FXR-UAS-bla HEK 293T cells, 16 h, pEC50 = -log EC50
human Farnesoid X receptor ligand-binding domain/Gal4 DNA binding domain chimera, sequence (Q96RI1 262-486, change not shown): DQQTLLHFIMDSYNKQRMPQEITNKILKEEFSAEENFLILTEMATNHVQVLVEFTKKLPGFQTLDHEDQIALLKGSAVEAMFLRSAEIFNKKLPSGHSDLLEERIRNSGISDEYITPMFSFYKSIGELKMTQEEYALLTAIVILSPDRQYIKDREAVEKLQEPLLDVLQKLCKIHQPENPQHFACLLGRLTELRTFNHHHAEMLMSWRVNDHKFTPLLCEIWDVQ
human Farnesoid X receptor ligand-binding domain/Gal4 DNA binding domain chimera, sequence (P04386 1-147 partner): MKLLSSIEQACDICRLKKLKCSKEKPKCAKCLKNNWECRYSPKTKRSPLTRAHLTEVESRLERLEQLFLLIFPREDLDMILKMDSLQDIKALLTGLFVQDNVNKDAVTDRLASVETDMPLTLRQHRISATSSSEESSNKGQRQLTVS
Procedure, shortened: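 Readout is cleavage of the CCF4 FRET substrate (409 nm excitation, blue 447 nm signal) by beta-lactamase, expressed under UAS control after a Gal4–human FXR LBD chimera is activated in HEK 293T cells. Compounds were added as 3-fold dilutions for 16 h at 37 °C in 2% charcoal-stripped FBS medium. Curves were fit to a 3-parameter logistic equation to give pEC50, with % activation relative to GW4064.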

[3] = -log EC50, concentration required to produce 50% activation

ligand binding domain of human FXR, sequence (Q96RI1 262-486): as the sequence (Q96RI1 262-486, change not shown) above

Structure (SMILES): CS(=O)(=O)NC(=O)c1ccc(N2C[C@@H]3C[C@H]2C[C@H]3OC(=O)c2c(-c3c(Cl)cccc3Cl)noc2C2CC2)cc1 [Compound I-45, (1S,4S,5R)-2-[4-(methanesulfonylcarbamoyl)phenyl]-2-azabicyclo[2.2.1]heptan-5-yl 5-cyclopropyl-3-(2,6-dichlorophenyl)-1,2-oxazole-4-carboxylate]
- pEC50 [1, 3]: 7.5
- Emax [1]: 152%
- Emax [2]: 107%
- EC50 [2]: 25.1 nM

Structure (SMILES): CCCS(=O)(=O)NC(=O)c1ccc(N2C[C@@H]3C[C@H]2C[C@H]3OC(=O)c2c(-c3c(Cl)cccc3Cl)noc2C2CC2)cc1 [Compound I-46, (1S,4S,5R)-2-{4-[(propane-1-sulfonyl)carbamoyl]phenyl}-2-azabicyclo[2.2.1]heptan-5-yl 5-cyclopropyl-3-(2,6-dichlorophenyl)-1,2-oxazole-4-carboxylate]
- pEC50 [1, 3]: 7.9
- Emax [1]: 174%
- Emax [2]: 110%
- EC50 [2]: 12.6 nM

Structure (SMILES): O=C(NS(=O)(=O)C1CC1)c1ccc(N2C[C@@H]3C[C@H]2C[C@H]3OC(=O)c2c(-c3c(Cl)cccc3Cl)noc2C2CC2)cc1 [Compound I-47, (1S,4S,5R)-2-{4-[(cyclopropanesulfonyl)carbamoyl]phenyl}-2-azabicyclo[2.2.1]heptan-5-yl 5-cyclopropyl-3-(2,6-dichlorophenyl)-1,2-oxazole-4-carboxylate]
- pEC50 [1, 3]: 7.8
- Emax [1]: 174%
- Emax [2]: 106%
- EC50 [2]: 15.8 nM

Structure (SMILES): CS(=O)(=O)NC(=O)c1ccc(N2C[C@@H]3C[C@H]2C[C@H]3OC(=O)c2c(-c3c(Cl)cccc3Cl)noc2C2CC2)c(F)c1 [Compound I-48, (1S,4S,5R)-2-[2-fluoro-4-(methanesulfonylcarbamoyl)phenyl]-2-azabicyclo[2.2.1]heptan-5-yl 5-cyclopropyl-3-(2,6-dichlorophenyl)-1,2-oxazole-4-carboxylate]
- pEC50 [1, 3]: 7.6
- Emax [1]: 199%
- Emax [2]: 119%
- EC50 [2]: 6.31 nM

Structure (SMILES): CCCS(=O)(=O)NC(=O)c1ccc(N2C[C@@H]3C[C@H]2C[C@H]3OC(=O)c2c(-c3c(Cl)cccc3Cl)noc2C2CC2)c(F)c1 [Compound I-49, (1S,4S,5R)-2-{2-fluoro-4-[(propane-1-sulfonyl)carbamoyl]phenyl}-2-azabicyclo[2.2.1]heptan-5-yl 5-cyclopropyl-3-(2,6-dichlorophenyl)-1,2-oxazole-4-carboxylate]
- pEC50 [1, 3]: 8
- Emax [1]: 188%
- Emax [2]: 118%
- EC50 [2]: 3.98 nM

Structure (SMILES): O=C(O[C@@H]1C[C@@H]2C[C@H]1CN2c1ccc(-c2nn[nH]n2)cc1)c1c(-c2c(Cl)cccc2Cl)noc1C1CC1 [Compound I-50, (1S,4S,5R)-2-[4-(2H-1,2,3,4-tetrazol-5-yl)phenyl]-2-azabicyclo[2.2.1]heptan-5-yl 5-cyclopropyl-3-(2,6-dichlorophenyl)-1,2-oxazole-4-carboxylate]
- pEC50 [1, 3]: 6.8
- Emax [1]: 184%
- Emax [2]: 109%
- EC50 [2]: 15.8 nM

Structure (SMILES): O=C(O[C@@H]1C[C@@H]2C[C@H]1CN2c1ccc(-c2nn[nH]n2)cc1F)c1c(-c2c(Cl)cccc2Cl)noc1C1CC1 [Compound I-51, (1S,4S,5R)-2-[2-fluoro-4-(2H-1,2,3,4-tetrazol-5-yl)phenyl]-2-azabicyclo[2.2.1]heptan-5-yl 5-cyclopropyl-3-(2,6-dichlorophenyl)-1,2-oxazole-4-carboxylate]
- pEC50 [1, 3]: 6.7
- Emax [1]: 269%
- Emax [2]: 104%
- EC50 [2]: 20 nM

Structure (SMILES): O=C(O)c1ccc(N2C[C@@H]3C[C@H]2C[C@H]3OCc2c(-c3c(Cl)cccc3Cl)noc2C2CC2)cc1 [Compound I-52, 4-[(1S,4S,5R)-5-[[5-cyclopropyl-3-(2,6-dichlorophenyl)-1,2-oxazol-4-yl]methoxy]-2-azabicyclo[2.2.1]heptan-2-yl]benzoic acid]
- pEC50 [1, 3]: 8.8
- Emax [1]: 148%
- Emax [2]: 111%
- EC50 [2]: 1 nM

Structure (SMILES): O=C(O)c1ccc(N2C[C@@H]3C[C@H]2C[C@H]3OCc2c(-c3c(Cl)cccc3Cl)noc2C2CC2)c(F)c1 [Compound I-53, 4-[(1S,4S,5R)-5-[[5-cyclopropyl-3-(2,6-dichlorophenyl)-1,2-oxazol-4-yl]methoxy]-2-azabicyclo[2.2.1]heptan-2-yl]-3-fluorobenzoic acid]
- pEC50 [1, 3]: 8.7
- Emax [1]: 145%
- Emax [2]: 113%
- EC50 [2]: 0.398 nM

- EC50 [1, 3]: 1.58 nM
- Emax [1]: 158%
- Emax [2]: 101%
- EC50 [2]: 0.316 nM
Structure (SMILES): O=C(O)c1cc(F)c(N2C[C@@H]3C[C@H]2C[C@H]3OCc2c(-c3c(Cl)cccc3Cl)noc2C2CC2)c(F)c1 [Compound I-54, 4-[(1S,4S,5R)-5-{[5-cyclopropyl-3-(2,6-dichlorophenyl)-1,2-oxazol-4-yl]methoxy}-2-azabicyclo[2.2.1]heptan-2-yl]-3,5-difluorobenzoic Acid]

Structure (SMILES): N#Cc1cc(F)c(N2C[C@@H]3C[C@H]2C[C@H]3OCc2c(-c3c(Cl)cccc3Cl)noc2C2CC2)c(F)c1 [Compound I-54a, 4-[(1S,4S,5R)-5-[[5-cyclopropyl-3-(2,6-dichlorophenyl)-1,2-oxazol-4-yl]methoxy]-2-azabicyclo[2.2.1]heptan-2-yl]-3,5-difluorobenzonitrile]
- pEC50 [1, 3]: 7.0
- Emax [1]: 162%
- Emax [2]: 112%
- EC50 [2]: 31.6 nM

Structure (SMILES): O=C(O)c1ccc(N2C[C@@H]3C[C@H]2C[C@H]3OCc2c(-c3c(Cl)cccc3Cl)noc2C2CC2)nc1 [Compound I-55, 6-[(1S,4S,5R)-5-{[5-cyclopropyl-3-(2,6-dichlorophenyl)-1,2-oxazol-4-yl]methoxy}-2-azabicyclo[2.2.1]heptan-2-yl]pyridine-3-carboxylic Acid]
- pEC50 [1, 3]: 7.9
- Emax [1]: 121%
- Emax [2]: 104%
- EC50 [2]: 3.16 nM

Structure (SMILES): O=C(O)c1ccc(N2C[C@@H]3C[C@H]2C[C@H]3OCc2c(-c3c(Cl)cccc3Cl)noc2C2(F)CC2)cc1 [Compound I-56, 4-[(1S,4S,5R)-5-{[3-(2,6-dichlorophenyl)-5-(1-fluorocyclopropyl)-1,2-oxazol-4-yl]methoxy}-2-azabicyclo[2.2.1]heptan-2-yl]benzoic Acid]
- pEC50 [1, 3]: 8.5
- Emax [1]: 137%
- Emax [2]: 125%
- EC50 [2]: 2 nM

Structure (SMILES): O=C(O)c1ccc(N2C[C@@H]3C[C@H]2C[C@H]3OCc2c(-c3c(Cl)cccc3Cl)noc2C2(F)CC2)c(F)c1 [Compound I-57, 4-[(1S,4S,5R)-5-{[3-(2,6-dichlorophenyl)-5-(1-fluorocyclopropyl)-1,2-oxazol-4-yl]methoxy}-2-azabicyclo[2.2.1]heptan-2-yl]-3-fluorobenzoic Acid]
- pEC50 [1, 3]: 7.9
- Emax [1]: 146%
- Emax [2]: 109%
- EC50 [2]: 1 nM

Structure (SMILES): CS(=O)(=O)NC(=O)c1ccc(N2C[C@@H]3C[C@H]2C[C@H]3OCc2c(-c3c(Cl)cccc3Cl)noc2C2CC2)cc1 [Compound I-58, 4-[(1S,4S,5R)-5-{[5-cyclopropyl-3-(2,6-dichlorophenyl)-1,2-oxazol-4-yl]methoxy}-2-azabicyclo[2.2.1]heptan-2-yl]-N-methanesulfonylbenzamide]
- pEC50 [1, 3]: 8.4
- Emax [1]: 153%
- Emax [2]: 104%
- EC50 [2]: 0.501 nM

Structure (SMILES): CCCS(=O)(=O)NC(=O)c1ccc(N2C[C@@H]3C[C@H]2C[C@H]3OCc2c(-c3c(Cl)cccc3Cl)noc2C2CC2)cc1 [Compound I-59, 4-[(1S,4S,5R)-5-{[5-cyclopropyl-3-(2,6-dichlorophenyl)-1,2-oxazol-4-yl]methoxy}-2-azabicyclo[2.2.1]heptan-2-yl]-N-(propane-1-sulfonyl)benzamide]
- pEC50 [1, 3]: 8.2
- Emax [1]: 176%
- Emax [2]: 103%
- EC50 [2]: 0.1 nM

Structure (SMILES): O=C(NS(=O)(=O)C1CC1)c1ccc(N2C[C@@H]3C[C@H]2C[C@H]3OCc2c(-c3c(Cl)cccc3Cl)noc2C2CC2)cc1 [Compound I-60, N-(cyclopropanesulfonyl)-4-[(1S,4S,5R)-5-[[5-cyclopropyl-3-(2,6-dichlorophenyl)-1,2-oxazol-4-yl]methoxy]-2-azabicyclo[2.2.1]heptan-2-yl]benzamide]
- pEC50 [1, 3]: 8.2
- Emax [1]: 170%
- Emax [2]: 105%
- EC50 [2]: 0.2 nM

Structure (SMILES): CCCS(=O)(=O)NC(=O)c1ccc(N2C[C@@H]3C[C@H]2C[C@H]3OCc2c(-c3c(Cl)cccc3Cl)noc2C2CC2)c(F)c1 [Compound I-61, 4-[(1S,4S,5R)-5-{[5-cyclopropyl-3-(2,6-dichlorophenyl)-1,2-oxazol-4-yl]methoxy}-2-azabicyclo[2.2.1]heptan-2-yl]-3-fluoro-N-(propane-1-sulfonyl)benzamide]
- pEC50 [1, 3]: 8.7
- Emax [1]: 174%
- Emax [2]: 106%
- EC50 [2]: 0.0631 nM

Structure (SMILES): O=C(NS(=O)(=O)C1CC1)c1ccc(N2C[C@@H]3C[C@H]2C[C@H]3OCc2c(-c3c(Cl)cccc3Cl)noc2C2CC2)c(F)c1 [Compound I-62, N-(cyclopropanesulfonyl)-4-[(1S,4S,5R)-5-{[5-cyclopropyl-3-(2,6-dichlorophenyl)-1,2-oxazol-4-yl]methoxy}-2-azabicyclo[2.2.1]heptan-2-yl]-3-fluorobenzamide]
- pEC50 [1, 3]: 7.9
- Emax [1]: 188%
- Emax [2]: 112%
- EC50 [2]: 0.158 nM

Structure (SMILES): O=C(O)c1cc(F)c2nc(N3C[C@H]4C[C@@H]3[C@H](OC(=O)c3c(-c5c(Cl)cccc5Cl)noc3C3CC3)C4)sc2c1 [Compound I-63, 2-[(1R,4S,6R)-6-[5-cyclopropyl-3-(2,6-dichlorophenyl)-1,2-oxazole-4-carbonyloxy]-2-azabicyclo[2.2.1]heptan-2-yl]-4-fluoro-1,3-benzothiazole-6-carboxylic Acid]
- pEC50 [1, 3]: 8.7
- Emax [1]: 13%
- EC50 [2]: < 31600 nM

Source: patent publication US10793568B2, “Hormone receptor modulators for treating metabolic conditions and disorders” (ARDELYX, INC., priority 2016, dated 2020)
